Laboratory results published in ChEMBL document CHEMBL3351504, “Discovery and structure-based optimization of adenain inhibitors” (ACS Med Chem Lett, 2014).
pEC50, pIC50: −log10 of the molar value. Values after ≈ are worked out from the molar mass of the structure shown.

Key:
[1] = Permeability from apical to basolateral side in human Caco2 cells; type: ADME, cell-based; details: Caco-2, read-out: permeability
[2] = Inhibition of human adenovirus serotype 8 adenain protease expressed in Escherichia coli […] (DE3) using Ac-WLRGG*ARC(PT14)-NH2 as substrate by FLT assay; design: species or system Human adenovirus 8
Human adenovirus 5 = assay: Antiviral activity against human adenovirus 5 infected in HEK293 cells assessed as reduction in viral induced cytopathogenicity incubated for 5 days by Celltiter-Glo luminescent cell viability assay; type: functional, organism-based; details: Human mastadenovirus C, HEK293, 120 h
[3] = Permeability from basolateral to apical side in human Caco2 cells; type: ADME, cell-based; details: Caco-2, read-out: permeability
[4] = High throughput equilibrium solubility at pH 6.8; type: physicochemical; details: buffer
[5] = Inhibition of human adenovirus serotype 5 adenain protease expressed in Escherichia coli […] (DE3) using Ac-WLRGG*ARC(PT14)-NH2 as substrate by FLT assay; design: species or system Human adenovirus 5
[6] = Inhibition of adenovirus adenain; design: species or system unidentified adenovirus

| SMILES | Papp A→B [1] | pIC50 [2] | Papp B→A [3] | solubility thermodynamic [4] | pIC50 [5] | pIC50 [6] | pEC50 (Human adenovirus 5) |
| --- | --- | --- | --- | --- | --- | --- | --- |
| N#Cc1ncc(C(=O)NCc2ccccc2)cn1 | – | – | – | – | – | 4.62 | – |
| N#CCNC(=O)CNC(=O)[C@H](Cc1ccccc1)NC(=O)Cc1cccc(Cl)c1 | 1.2 ×10⁻⁶ cm/s | 6.42 | 7.4 ×10⁻⁶ cm/s | 150 µM (≈ 61.9 µg/mL) | 6.55 | – | – |
| N#CCNC(=O)CNC(=O)[C@H](Cc1ccccc1)NC(=O)[C@@H](O)c1cccc(Cl)c1 | 2.2 ×10⁻⁶ cm/s | 7.15 | 3.2 ×10⁻⁶ cm/s | – | – | – | – |
| N#CCNC(=O)CNC(=O)[C@H](Cc1ccccc1)NC(=O)Cc1cc(Cl)cc(Cl)c1 | 1.2 ×10⁻⁶ cm/s | 7.15 | 8.1 ×10⁻⁶ cm/s | 30 µM (≈ 13.4 µg/mL) | 7.40 | – | – |
| N#CCNC(=O)CNC(=O)[C@H](CN)NC(=O)Cc1cc(Cl)cc(Cl)c1 | 1 ×10⁻⁶ cm/s | 7.10 | 1.2 ×10⁻⁶ cm/s | 891 µM (≈ 344 µg/mL) | 7.40 | – | – |
| C[C@@H](O)[C@H](NC(=O)Cc1cc(Cl)cc(Cl)c1)C(=O)NCC(=O)NCC#N | – | 7.10 | – | 121 µM (≈ 48.6 µg/mL) | 7.52 | – | – |
| CC(C)(C)[C@H](NC(=O)Cc1cc(Cl)cc(Cl)c1)C(=O)NCC(=O)NCC#N | 5.4 ×10⁻⁶ cm/s | 7.10 | 23.8 ×10⁻⁶ cm/s | 85 µM (≈ 35.1 µg/mL) | 7.40 | – | – |
| CC[C@H](C)[C@H](NC(=O)C(c1cc(Cl)cc(Cl)c1)N(C)C)C(=O)NCc1ccnc(C#N)n1 (mixture of isomers) | 17.8 ×10⁻⁶ cm/s | 7.22 | 10.1 ×10⁻⁶ cm/s | 61 µM | 7.70 | – | 5.17 |
| N#CCNC(=O)CNC(=O)C(Cc1ccccn1)NC(=O)Cc1cc(Cl)cc(Cl)c1 (racemic) | 0.7 ×10⁻⁶ cm/s | 6.44 | 15 ×10⁻⁶ cm/s | 111 µM (≈ 49.8 µg/mL) | 6.85 | – | – |

More lines, in order of rising pIC50 [2], values ahead:

| Papp A→B [1] | pIC50 [2] | Papp B→A [3] | solubility thermodynamic [4] | pIC50 [5] | pIC50 [6] | SMILES | pEC50 (Human adenovirus 5) |
| --- | --- | --- | --- | --- | --- | --- | --- |
| 3 ×10⁻⁶ cm/s | 7.30 | 28 ×10⁻⁶ cm/s | – | 7.30 | – | CC[C@H](C)[C@H](NC(=O)[C@@H](O)c1cc(Cl)cc(Cl)c1)C(=O)NCC(=O)NCC#N | – |
| 1.2 ×10⁻⁶ cm/s | 7.40 | 7.5 ×10⁻⁶ cm/s | 170 µM (≈ 86 µg/mL) | 7.52 | 7.40 | CS(=O)(=O)N[C@H](C(=O)N[C@@H](Cc1ccccc1)C(=O)NCC(=O)NCC#N)c1cccc(Cl)c1 | – |
| 2.6 ×10⁻⁶ cm/s | 7.52 | 18 ×10⁻⁶ cm/s | 1000 µM (≈ 429 µg/mL) | 8.30 | – | CC[C@H](C(=O)N[C@H](C(=O)NCC(=O)NCC#N)[C@@H](C)O)c1cc(Cl)cc(Cl)c1 | – |
| – | 7.52 | – | 50 µM | 8.22 | – | CC(C(=O)N[C@@H](Cc1ccccc1)C(=O)NCC(=O)NCC#N)c1cc(Cl)cc(Cl)c1 (mixture of isomers) | – |
| 7.3 ×10⁻⁶ cm/s | 7.70 | 12.2 ×10⁻⁶ cm/s | 5 µM (≈ 2.21 µg/mL) | 8.00 | – | CC[C@H](C(=O)N[C@H](C(=O)NCC(=O)NCC#N)C(C)(C)C)c1cc(Cl)cc(Cl)c1 | 5.60 |
| 18.3 ×10⁻⁶ cm/s | 7.70 | 11.3 ×10⁻⁶ cm/s | 236 µM (≈ 106 µg/mL) | 8.10 | – | CC[C@H](C)[C@H](NC(=O)[C@@H](O)c1cc(Cl)cc(Cl)c1)C(=O)NCc1ccnc(C#N)n1 | 5.14 |
| 23.2 ×10⁻⁶ cm/s | 8.40 | 14.8 ×10⁻⁶ cm/s | 52 µM (≈ 22 µg/mL) | 8.70 | – | COC[C@H](NC(=O)Cc1cc(Cl)cc(Cl)c1)C(=O)NCc1ccnc(C#N)n1 | 5.49 |
| 12.2 ×10⁻⁶ cm/s | 8.52 | 14.1 ×10⁻⁶ cm/s | 556 µM (≈ 235 µg/mL) | 8.70 | – | C[C@@H](O)[C@H](NC(=O)Cc1cc(Cl)cc(Cl)c1)C(=O)NCc1ccnc(C#N)n1 | 5.92 |
